The record followed here is PMC12313710, “Targeting the BAG2/CHIP axis promotes gastric cancer apoptosis by blocking apoptosome assembly” (Frontiers in Immunology, 2025).

This assay concerns the target T1, CHIP (Homo sapiens, UniProt Q9UNE7).
T1 construct: gene STUB1; commercial human recombinant CHIP (OriGene)
T1 sequence (Q9UNE7 1-303): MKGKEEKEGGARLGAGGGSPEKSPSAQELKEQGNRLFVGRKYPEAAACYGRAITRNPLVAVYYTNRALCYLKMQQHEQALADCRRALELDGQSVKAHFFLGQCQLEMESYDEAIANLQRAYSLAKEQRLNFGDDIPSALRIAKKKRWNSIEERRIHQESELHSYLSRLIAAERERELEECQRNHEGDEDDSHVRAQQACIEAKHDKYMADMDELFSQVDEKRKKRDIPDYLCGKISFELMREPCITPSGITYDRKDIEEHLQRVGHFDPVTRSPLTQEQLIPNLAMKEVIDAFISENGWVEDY
The experiment in a line: microscale thermophoresis, Monolith NT.[…], single-site fit. The assay is classed as binding.

With `C=CC(=O)Nc1ccc(CN2C(=O)N(c3cc(OC)cc(OC)c3)Cc3cnc(Nc4ccc(N5CCN(C)CC5)cc4)nc32)cc1` [FIIN-2], binding was put at a Kd of 1.83 µM.
